System: HCT116 MTAP-deleted cell lines
Assay: Cell viability assay for HCT116 isogenic pair (CellTitre-Glo, 7 days)
Assay type: cell-based
Conditions: Homo sapiens, HCT-116, 168 h, 7 days of treatment, cell line not given
Method: Control compounds were analyzed in parallel each time for quality control.
In Brief, on Day −1, a serial dilution of stock compounds in DMSO was performed using BioMek liquid handlers and dispensed using Echo acoustic dispenser into 384 well plates. Both tool compounds and sample compounds were spotted in the same plate for a dose response of PRMT5 inhibitors. Compound plates were stored as frozen until the cells were ready for seeding.
On Day 0, 100 HCT WT or HCT116 MTAP-deleted cells were seeded in compound-containing 384 well plates (50 μl per well) in RPMI 1640 media supplemented with 10% heat inactivated fetal bovine serum, Glutamax and penicillin streptomycin using EL460 liquid dispenser 5 μl cassette (BioTek, part no. 7170011). After equilibrating the plate in room temperature, the cells were incubated for 7 days inside the sealed incubator set at 37° C. with 90% humidity and 5% CO2.
On Day 7, the viability of cells was measured using a CTG assay kit (CellTitre-Glo; Promega cat no. G7573). Shortly, 40 μl per well of luminescent cell viability assay reagent were dispensed using EL460 liquid dispenser 5 μl cassette. CTG luminescence signal was measured using an EnVision plate reader (PerkinElmer) in accordance with manufacturer's instruction. The CCso values for each compound after 7 days of treatment were calculated using 4 parameter non-linear logistical curve fit.
For the cell viability assay ie CC50 shown in nM in Table 3.

SMILES | CC50
Cn1ncc2c3cc(C(=O)N4CCC[C@@H]5Oc6cc(C(F)(F)F)cc(F)c6[C@@H]54)ncc3nc(N)c21 [Example Ca-52, (4-amino-3-methyl-3H-pyrazolo[3,4-c][1,7]naphthyridin-8-yl)((4aS,9bS)-9-fluoro-7-(trifluoromethyl)-3,4,4a,9b-tetrahydrobenzofuro[3,2-b]pyridin-1(2H)-yl)methanone] | 48 nM
Cn1ncc2c(N)nc3cnc(C(=O)N4CCO[C@@H]5Cc6cc(OC(F)(F)F)ccc6[C@@H]54)cc3c21 [Example Ca-53, (4-amino-1-methyl-1H-pyrazolo[4,3-c][1,7]naphthyridin-8-yl)((4aS,9aR)-7-(trifluoromethoxy)-2,3,9,9a-tetrahydroindeno[2,1-b][1,4]oxazin-4(4aH)-yl)methanone] | 33 nM
Cn1ncc2c(N)nc3cnc(C(=O)N4CCO[C@@H]5Cc6cc(C(F)(F)F)ccc6[C@@H]54)cc3c21 [Example Ca-54, (4-amino-1-methyl-1H-pyrazolo[4,3-c][1,7]naphthyridin-8-yl)((4aS,9aR)-7-(trifluoromethyl)-2,3,9,9a-tetrahydroindeno[2,1-b][1,4]oxazin-4(4aH)-yl)methanone] | 16 nM
Cn1ncc2c(N)nc3cc(F)c(C(=O)N4CCC[C@@H]5Oc6cc(-c7cnn(C(F)(F)F)c7)ccc6[C@@H]54)cc3c21 [Example Ca-56, (4-amino-7-fluoro-1-methyl-1H-pyrazolo[4,3-c]quinolin-8-yl)((4aS,9bS)-7-(1-(trifluoromethyl)-1H-pyrazol-4-yl)-3,4,4a,9b-tetrahydrobenzofuro[3,2-b]pyridin-1(2H)-yl)methanone] | 4 nM
Nc1nc2cnc(C(=O)N3C[C@@H](F)C[C@@H]4Oc5cc(C(F)(F)F)cc(F)c5[C@@H]43)cc2c2c1COC2 [Example Ca-57, (4-amino-1,3-dihydrofuro[3,4-c][1,7]naphthyridin-8-yl)((3S,4aS,9bS)-3,9-difluoro-7-(trifluoromethyl)-3,4,4a,9b-tetrahydrobenzofuro[3,2-b]pyridin-1(2H)-yl)methanone] | 20 nM
[2H]C1([2H])CC[C@@H]2Oc3cc(C(F)(F)F)cc(F)c3[C@@H]2N1C(=O)c1cc2c3c(c(N)nc2cn1)COC3 [Example Ca-58, (4-amino-1,3-dihydrofuro[3,4-c][1,7]naphthyridin-8-yl)((4aS,9bS)-9-fluoro-7-(trifluoromethyl)-3,4,4a,9b-tetrahydrobenzofuro[3,2-b]pyridin-1(2H)-yl-2,2-d2)methanone] | 9 nM
Nc1nc2cnc(C(=O)N3CC[C@H]4C[C@@H]3c3c(F)cc(C(F)(F)F)cc3O4)cc2c2c1COC2 [Example Ca-59, (4-amino-1,3-dihydrofuro[3,4-c][1,7]naphthyridin-8-yl)((2S,6R)-7-fluoro-9-(trifluoromethyl)-3,4-dihydro-2H-2,6-methanobenzo[b][1,5]oxazocin-5(6H)-yl)methanone] | 17 nM
Nc1nc2cnc(C(=O)N3CC[C@H]4C[C@@H]3c3c(Cl)cc(C(F)(F)F)cc3O4)cc2c2c1COC2 [Example Ca-60, (4-amino-1,3-dihydrofuro[3,4-c][1,7]naphthyridin-8-yl)((2S,6R)-7-chloro-9-(trifluoromethyl)-3,4-dihydro-2H-2,6-methanobenzo[b][1,5]oxazocin-5(6H)-yl)methanone] | 227 nM
C[C@H]1CN(C(=O)c2cc3c4c(c(N)nc3cn2)COC4)[C@H]2c3ccc(C(F)(F)F)cc3C[C@H]2O1 [Example Cb-1, (4-amino-1,3-dihydrofuro[3,4-c][1,7]naphthyridin-8-yl)((2S,4aS,9aR)-2-methyl-7-(trifluoromethyl)-2,3,9,9a-tetrahydroindeno[2,1-b][1,4]oxazin-4(4aH)-yl)methanone] | 71 nM
